Consider 15 compounds from patent US8623898B2, “Glycine transporter inhibiting substances” (Taisho Pharmaceutical Co., Ltd., priority 2009, dated 2014).

For orientation: IC50 means the midpoint of a concentration-inhibition curve.

Series [1] can be described thus: Membrane permeability experiment (PAMPA Evolution). It is filed as in vitro ADME. As to conditions: artificial lipid GIT-0, pH 4.0, 5.0, 6.2 and 7.4, marker metoprolol. As to the method:
In the development of pharmaceuticals, membrane permeability is an important factor to consider from the viewpoint of relationship with the bodily absorption of a medicament to be administered orally. Compounds having high membrane permeability are expected to feature satisfactory absorption by the intestinal tract (see Pharmaceutical Research (2002) Vol. 19, No. 7, 921-925.)
A membrane permeability test was conducted using PAMPA Evolution™ (pION INC.) in accordance with a modified version of the recommended protocol of pION INC. To be more specific, solutions of an assay compound (i.e., a DMSO solution of the compound as diluted by being added to system solutions that had been adjusted to prescribed pHs (4.0, 5.0, 6.2, and 7.4)) were prepared and added to the lower compartment (donor) of a sandwich plate having a lipid bilayer membrane formed of an artificial lipid (GIT-0). An acceptor sink buffer was added to the upper compartment (acceptor) and after the lapse of a prescribed period, the cumulative permeation of the compound was measured by performing UV spectroscopy on the solutions in the donor and acceptor, and the membrane permeability coefficient Pe (×10^−6 cm/sec) was calculated to assay the membrane permeability of the compound.

The target of series [2] is T1, human type 1 glycine transporter (GlyT1) (Homo sapiens, UniProt P48067).
T1 construct: Used in the experiment were T98G cells (glioma cells) developing a human type 1 glycine transporter (GlyT1); endogenous in cells; host or cells: T98G human glioma cells
T1 sequence (P48067 1-706): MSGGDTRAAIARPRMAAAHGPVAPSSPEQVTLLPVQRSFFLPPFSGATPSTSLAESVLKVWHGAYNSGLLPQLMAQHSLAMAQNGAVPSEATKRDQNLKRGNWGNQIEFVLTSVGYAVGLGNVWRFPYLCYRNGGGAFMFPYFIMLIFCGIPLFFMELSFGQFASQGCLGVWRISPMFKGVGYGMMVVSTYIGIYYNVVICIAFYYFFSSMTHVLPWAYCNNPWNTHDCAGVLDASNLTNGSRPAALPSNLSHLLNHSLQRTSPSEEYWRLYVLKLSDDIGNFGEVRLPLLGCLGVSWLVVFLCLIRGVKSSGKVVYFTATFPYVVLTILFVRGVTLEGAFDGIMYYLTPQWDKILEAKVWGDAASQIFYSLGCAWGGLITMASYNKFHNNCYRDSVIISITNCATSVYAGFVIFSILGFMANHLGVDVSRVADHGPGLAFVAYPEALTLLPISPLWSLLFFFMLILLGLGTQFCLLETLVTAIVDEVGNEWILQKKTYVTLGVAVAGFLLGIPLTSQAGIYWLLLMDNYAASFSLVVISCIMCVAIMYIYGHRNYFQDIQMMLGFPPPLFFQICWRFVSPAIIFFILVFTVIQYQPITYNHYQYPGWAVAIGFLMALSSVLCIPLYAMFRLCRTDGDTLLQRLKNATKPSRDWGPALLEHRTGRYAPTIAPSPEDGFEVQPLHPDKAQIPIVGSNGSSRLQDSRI
Nature of the series: Glycine uptake inhibition experiment ([3H] glycine uptake in T98G cells). It is filed as cell-based. As to conditions: [3H] glycine 250 nM, read-out: IC50 (glycine uptake inhibiting activity). As to the method: A glycine uptake inhibition experiment was conducted in accordance with the method described in Neuron, 8, 927-935, 1992. Used in the experiment were T98G cells (glioma cells) developing a human type 1 glycine transporter (GlyT1). The T98G cells were seeded in a 96-well plate at a density of 2.0×10^4 cells per well and cultured overnight in a CO2 incubator. The test substance was first dissolved in a 100% DMSO solution and then dissolved in a 10 mM HEPES buffer solution (pH 7.4) supplemented with 150 mM sodium chloride, 1 mM calcium chloride, 5 mM potassium chloride, 1 mM magnesium chloride, 10 mM glucose, and 0.2% bovine serum albumin. After removing the cell culture medium, the test substance was subjected to a 10-min pretreatment. Thereafter, the test substance and [^3H] glycine (final concentration: 250 nM) were added to the cells and reaction was performed at room temperature for 15 minutes. After the end of the reaction, the extracellular fluid was aspirated with a manifold to remove the excess marker glycine present outside of the cells; thereafter, the cells were lysed with an aqueous solution of 0.5 M sodium hydroxide. The glycine content in the cells was determined by measuring the radioactivity in the cell lysate with a liquid scintillation counter. With the amount of glycine uptake in the presence of 10 μM ALX5407 being referred to as the nonspecific uptake, the amount of specific uptake was calculated by subtracting the amount of nonspecific uptake from the total amount of uptake in the absence of 10 μM ALX5407. In addition, glycine uptake inhibiting activity (IC50) was calculated from an inhibition curve for the concentration of the test substance ranging from 10^−9 to 10^−5 M.

Structures are written as SMILES. Like-named read-outs stand apart in the source and are kept apart here.

Turning to `Cn1cnc(C(=O)N(Cc2cccc(OC(F)(F)F)c2)CC2CCOCC2)c1` [Compound 2], in series [1], the “membrane permeability coefficient Pe compared with metoprolol” value is on record as “higher Pe values than the high permeability marker compound metoprolol”. The IC50 was 34.5 nM in series [2] (15 min, room temperature) and below 100 nM in series [2].
On to `O=C(c1cn(C2CC2)cn1)N(Cc1cccc(OC(F)(F)F)c1)C1CCOCC1` [Compound 12], for which the “membrane permeability coefficient Pe compared with metoprolol” value in series [1] is recorded as “higher Pe values than the high permeability marker compound metoprolol”. Also, the IC50 in series [2] is at least 1000 nM.
Consider `Cn1cnc(C(=O)N(Cc2cccc(Cl)c2)C2CCOCC2)c1` [Compound 15], for which the “membrane permeability coefficient Pe compared with metoprolol” value in series [1] is “higher Pe values than the high permeability marker compound metoprolol”. The IC50 in series [2] (15 min, room temperature) was 13.5 nM; in series [2], below 100 nM.
Regarding `Cn1cnc(C(=O)N(Cc2cccc(C(F)(F)F)c2)C2CCOCC2)c1` [Compound 16], the “membrane permeability coefficient Pe compared with metoprolol” value in series [1] is “higher Pe values than the high permeability marker compound metoprolol”. For the same compound, the half-inhibitory concentration (IC50) in series [2] (15 min, room temperature) is 9.7 nM; in series [2] it was below 100 nM.
Taken in the same sequence, the figures for `Cn1cnc(C(=O)N(Cc2ccc(F)c(Cl)c2)C2CCOCC2)c1` [Compound 24] were “higher Pe values than the high permeability marker compound metoprolol”, 5.9 nM and below 100 nM.
Take `O=C(c1c[nH]cn1)N(Cc1cccc(Cl)c1)C1CCOCC1` [Compound 26]: in series [1], the “membrane permeability coefficient Pe compared with metoprolol” value is listed as “higher Pe values than the high permeability marker compound metoprolol”. The IC50 in series [2] is at least 1000 nM.
With `Cn1cnc(C(=O)N(Cc2ccc(F)c(Cl)c2)C2CCOCC2)n1` [Compound 34], the “membrane permeability coefficient Pe compared with metoprolol” value in series [1] is “higher Pe values than the high permeability marker compound metoprolol”. Besides, the IC50 in series [2] is below 100 nM.
For `Cn1cnc(C(=O)N(Cc2ccc(F)c(C(F)(F)F)c2)C2CCOCC2)n1` [Compound 35], the “membrane permeability coefficient Pe compared with metoprolol” value in series [1] is on record as “higher Pe values than the high permeability marker compound metoprolol”. The IC50 in series [2] (15 min, room temperature) was 40.3 nM; in series [2] it was below 100 nM.
As to `Cn1cnc(C(=O)N(Cc2cccc(-c3ccccc3)c2)C2CCOCC2)n1` [Compound 55], the “membrane permeability coefficient Pe compared with metoprolol” value in series [1] is “higher Pe values than the high permeability marker compound metoprolol”. For the same compound, the half-inhibitory concentration (IC50) in series [2] (15 min, room temperature) was 28.7 nM; in series [2], below 100 nM.
With `Cn1cnc(C(=O)N(Cc2ccc(F)c(-c3ccccc3)c2)C2CCOCC2)n1` [Compound 59], in series [1], the “membrane permeability coefficient Pe compared with metoprolol” value is given as “higher Pe values than the high permeability marker compound metoprolol”. The IC50 in series [2] (15 min, room temperature) was 12.6 nM; in series [2] it was below 100 nM.
With `Cn1cnc(C(=O)N(Cc2ccc(F)c(-c3ccc(Cl)cc3)c2)C2CCOCC2)n1` [Compound 60], the “membrane permeability coefficient Pe compared with metoprolol” value in series [1] is given as “higher Pe values than the high permeability marker compound metoprolol”. Moreover, the IC50 is 30.6 nM in series [2] (15 min, room temperature) and below 100 nM in series [2].
`Cn1cnc(C(=O)N(Cc2ccc(F)c(-c3cccc(Cl)c3)c2)C2CCOCC2)n1` [Compound 61]: the “membrane permeability coefficient Pe compared with metoprolol” value in series [1] is “higher Pe values than the high permeability marker compound metoprolol”. The IC50 is 15.9 nM in series [2] (15 min, room temperature) and below 100 nM in series [2].
For `Cn1cnc(C(=O)N(CCc2cccc(OC(F)(F)F)c2)C2CCOCC2)c1` [Compound 70], the “membrane permeability coefficient Pe compared with metoprolol” value in series [1] is “higher Pe values than the high permeability marker compound metoprolol”. Moreover, the IC50 in series [2] (15 min, room temperature) was 14.1 nM; in series [2], below 100 nM.
Take `Cn1cnc(C(=O)N(Cc2ccc(F)c(-c3ccc(F)cc3)c2)C2CCOCC2)n1` [Compound 79]: the “membrane permeability coefficient Pe compared with metoprolol” value in series [1] is “higher Pe values than the high permeability marker compound metoprolol”. For the same compound, the IC50 in series [2] (15 min, room temperature) was 32 nM; in series [2] it was below 100 nM.
For `Cn1cnc(C(=O)N(Cc2ccc(F)c(Br)c2)C2CCOC(C)(C)C2)c1` (stereo not shown) [Compound 110], the “membrane permeability coefficient Pe compared with metoprolol” value in series [1] is given as “higher Pe values than the high permeability marker compound metoprolol”.
